Laboratory results from patent US20120082632A1, “Topical drug delivery system with dual carriers” (priority 2010, published 2012).

Assays:
[1] = system: Staph aureus, MRSA, Klebsiella pneumoniae, E. coli, Proteus vulgaris, Pseudomonas aeruginosa, Enterobacter cloacae, Acinetobacter lwoffi, Acinetobacter …; experiment: In-vitro comparison of Lots with different anti-oxidant amounts and control agents (FIGS. 16-27); type: cell-based; conditions: identical size drops; FIG. 16 Staph aureus, FIG. 17 MRSA, FIGS. 18-24 gram-negative cultures, FIG. 25 Enterococcus faecalis
[2] = system: mouse embryonic stem cells and embryoid bodies; conditions: cited from earlier work
[3] = system: HL-60 cells; conditions: cited from earlier work
[4] = system: MRSA infection and Grade I diabetic ulcer of the left hallux with cellulitus; experiment: Study III: human field study, diabetic foot lesion of great toe; type: in vivo; conditions: IV; 8 days following admission
Procedure: In this embodiment, the additional ingredient to hasten a third therapeutic tissue healing effect was added. This embodiment used vitamin D in a small but medically efficacious amount.

Compound | zones of inhibition of control agents compared with the formulations of the invention [1] | effect on mRNA and protein expression in epigenetic profiles [2] | amount at which desired cellular responses occurred [3] | subsequent retinoid-induced TGM2 expression after priming by pretreatment [3] | patient response to treatment for MRSA [4]
CC[C@H]1OC(=O)[C@H](C)[C@@H](O[C@H]2C[C@@](C)(OC)[C@@H](O)[C@H](C)O2)[C@H](C)[C@@H](O[C@@H]2O[C@H](C)C[C@H](N(C)C)[C@H]2O)[C@](C)(O)C[C@@H](C)C(=O)[C@H](C)[C@@H](O)[C@]1(C)O [Erythromycin] | considerably reduced zones of inhibition | – | – | – | –
C[S+](C)[O-] [DMSO, dimethyl sulfoxide] | – | upregulation of mRNA and protein expression | less than 2% | increases | –
CO[C@@]1(NC(=O)Cc2cccs2)C(=O)N2C(C(=O)O)=C(COC(N)=O)CS[C@@H]21 [Cefoxicillin] | considerably reduced zones of inhibition | – | – | – | –
vitamin D | – | – | about 100 nM | increases | –
CN[C@H](CC(C)C)C(=O)N[C@H]1C(=O)N[C@@H](CC(N)=O)C(=O)N[C@H]2C(=O)N[C@H]3C(=O)N[C@H](C(=O)N[C@H](C(=O)O)c4cc(O)cc(O)c4-c4cc3ccc4O)[C@H](O)c3ccc(c(Cl)c3)Oc3cc2cc(c3O[C@@H]2O[C@H](CO)[C@@H](O)[C@H](O)[C@H]2O[C@H]2C[C@](C)(N)[C@H](O)[C@H](C)O2)Oc2ccc(cc2Cl)[C@H]1O [Vancomycin] | considerably reduced zones of inhibition | – | – | – | did not respond
